{
  "source": "ChEMBL document CHEMBL1121463",
  "about": "“N-Acetyl-[2-(O-methyl)tyrosine]arginine-vasopressin, an interesting antagonist of the vasopressor response to vasopressin” (J Med Chem, 1980)",
  "key": {"[1]": {"species_on_record": "Rattus norvegicus", "assay": "Tested for anti-oxytocic activity against isolated rat uterus", "assay_type": "functional", "conditions": "read-out: pA2 (converted)"}, "[2]": {"species_on_record": "Rattus norvegicus", "assay": "The anti-oxytocic pA2 value (antagonistic) of compound was tested on isolated rat uterus (with the 0.5 mM Mg+2)", "assay_type": "functional", "conditions": "read-out: pA2 (converted)"}, "[3]": {"species_on_record": "Rattus norvegicus", "assay": "Compound was tested for anti-vasopressor activity against rat; Inhibitor", "assay_type": "functional, organism-based"}, "[4]": {"species_on_record": "Rattus norvegicus", "assay": "Tested for antidiuretic activity against rats", "assay_type": "functional, Urine"}, "[5]": {"species_on_record": "Rattus norvegicus", "assay": "Compound was tested for antidiuretic activity in rats", "assay_type": "ADME, organism-based, Urine", "conditions": "in vivo"}, "[6]": {"species_on_record": "Rattus norvegicus", "assay": "The vasopressor value (agonistic) of compound was tested on rat […]", "assay_type": "functional"}, "[7]": {"species_on_record": "Rattus norvegicus", "assay": "Compound was tested for anti-vasopressor activity against rat", "assay_type": "functional, organism-based", "conditions": "read-out: pA2 (converted)"}, "[8]": {"species_on_record": "Rattus norvegicus", "assay": "Tested for anti-oxytocic activity against isolated rat uterus; Showed both agonistic and antagonistic activities", "assay_type": "functional"}, "[9]": {"species_on_record": "Rattus norvegicus", "assay": "Compound was tested for anti-vasopressor activity against rat; Weak", "assay_type": "functional, organism-based"}},
  "note": "Where a SMILES comes first, the peptide text is derived from it. Bridges are numbered along the chain shown (N, C = ends).",
  "data": [
    {"smiles": "CC[C@H](C)[C@@H]1NC(=O)[C@H](Cc2ccc(OC)cc2)NC(=O)[C@@H](NC(C)=O)CSSC[C@@H](C(=O)N2CCC[C@H]2C(=O)N[C@@H](CC(C)C)C(=O)NCC(N)=O)NC(=O)[C@H](CC(N)=O)NC(=O)[C@H](CCC(N)=O)NC1=O", "values": [
      {"measurement": "Kb", "setting": "[1]", "value": 26.3, "unit": "nM"}
    ]},
    {"smiles": "COc1ccc(C[C@@H]2NC(=O)[C@@H](N)CSSC[C@@H](C(=O)N3CCC[C@H]3C(=O)N[C@@H](CCCN=C(N)N)C(=O)NCC(N)=O)NC(=O)[C@H](CC(N)=O)NC(=O)[C@H](CCC(N)=O)NC(=O)[C@H](Cc3ccccc3)NC2=O)cc1", "note": "[listing 1 of 2 here]", "values": [
      {"measurement": "Kb", "setting": "[1]", "value": 36.3, "unit": "nM"},
      {"measurement": "Kb", "setting": "[2]", "value": 457, "unit": "nM"}
    ]},
    {"smiles": "CC[C@H](C)[C@@H]1NC(=O)[C@H](Cc2ccc(OC)cc2)NC(=O)[C@@H](NC(=O)CNC)CSSC[C@@H](C(=O)N2CCC[C@H]2C(=O)N[C@@H](CC(C)C)C(=O)NCC(N)=O)NC(=O)[C@H](CC(N)=O)NC(=O)[C@H](CCC(N)=O)NC1=O", "values": [
      {"measurement": "Kb", "setting": "[1]", "value": 302, "unit": "nM"}
    ]},
    {"smiles": "CC[C@H](C)[C@@H]1NC(=O)[C@@H](Cc2ccc(OC)cc2)NC(=O)[C@H](NC(N)=O)CSSC[C@@H](C(=O)N2CCC[C@@H]2C(=O)N[C@@H](CC(C)C)C(=O)NCC(N)=O)NC(=O)[C@H](CC(N)=O)NC(=O)[C@@H](CCC(N)=O)NC1=O", "values": [
      {"measurement": "pA2", "setting": "[3]", "value": "Inhibition"}
    ]},
    {"smiles": "CC[C@H](C)[C@@H]1NC(=O)[C@H](Cc2ccc(OC)cc2)NC(=O)[C@@H](NC(=O)CN)CSSC[C@@H](C(=O)N2CCC[C@H]2C(=O)N[C@@H](CC(C)C)C(=O)NCC(N)=O)NC(=O)[C@H](CC(N)=O)NC(=O)[C@H](CCC(N)=O)NC1=O", "note": "(H-GCY(Me)IQNCPLG-NH2; disulfide 2-7)", "values": [
      {"measurement": "Kb", "setting": "[1]", "value": 141, "unit": "nM"}
    ]},
    {"smiles": "COc1ccc(C[C@@H]2NC(=O)[C@@H](NC(C)=O)CSSC[C@@H](C(=O)N3CCC[C@H]3C(=O)N[C@@H](CCCN=C(N)N)C(=O)NCC(N)=O)NC(=O)[C@H](CC(N)=O)NC(=O)[C@H](CCC(N)=O)NC(=O)[C@H](Cc3ccccc3)NC2=O)cc1", "note": "[listing 1 of 2 here]", "values": [
      {"measurement": "Antidiuretic", "setting": "[4]", "value": 0.026, "unit": "U/mg"}
    ]},
    {"smiles": "CC[C@H](C)[C@@H]1NC(=O)[C@H](Cc2ccc(O)cc2)NC(=O)[C@@H](N)CSSC[C@@H](C(=O)N2CCC[C@H]2C(=O)N[C@@H](CC(C)C)C(=O)NCC(N)=O)NC(=O)[C@H](CC(N)=O)NC(=O)[C@H](CCC(N)=O)NC1=O", "note": "[OXYTOCIN]", "values": [
      {"measurement": "Antidiuretic", "setting": "[5]", "value": 4, "unit": "U/mg"}
    ]},
    {"smiles": "COc1ccc(C[C@@H]2NC(=O)[C@@H](N)CSSC[C@@H](C(=O)N3CCC[C@H]3C(=O)N[C@@H](CCCN=C(N)N)C(=O)NCC(N)=O)NC(=O)[C@H](CC(N)=O)NC(=O)[C@H](CCC(N)=O)NC(=O)[C@H](Cc3ccccc3)NC2=O)cc1", "note": "[listing 2 of 2 here]", "values": [
      {"measurement": "Vasopressor activity", "setting": "[6]", "value": 9.7, "unit": "units/mg"},
      {"measurement": "Antidiuretic", "setting": "[4]", "value": 386, "unit": "U/mg"}
    ]},
    {"smiles": "COc1ccc(C[C@@H]2NC(=O)[C@@H](NC(C)=O)CSSC[C@@H](C(=O)N3CCC[C@H]3C(=O)N[C@@H](CCCN=C(N)N)C(=O)NCC(N)=O)NC(=O)[C@H](CC(N)=O)NC(=O)[C@H](CCC(N)=O)NC(=O)[C@H](Cc3ccccc3)NC2=O)cc1", "note": "[listing 2 of 2 here]", "values": [
      {"measurement": "Kb", "setting": "[1]", "value": 51.3, "unit": "nM"},
      {"measurement": "Kb", "setting": "[7]", "value": 66.1, "unit": "nM"},
      {"measurement": "Kb", "setting": "[2]", "value": 186, "unit": "nM"}
    ]},
    {"smiles": "CC[C@H](C)[C@@H]1NC(=O)[C@H](Cc2ccc(OC)cc2)NC(=O)[C@@H](N)CSSC[C@@H](C(=O)N2CCC[C@H]2C(=O)N[C@@H](CC(C)C)C(=O)NCC(N)=O)NC(=O)[C@H](CC(N)=O)NC(=O)[C@H](CCC(N)=O)NC1=O", "values": [
      {"measurement": "Antidiuretic", "setting": "[4]", "value": 0.01, "unit": "U/mg"}
    ]},
    {"smiles": "CC[C@H](C)[C@@H]1NC(=O)[C@@H](Cc2ccc(OC)cc2)NC(=O)[C@H](NC(C)=O)CSSC[C@@H](C(=O)N2CCC[C@@H]2C(=O)N[C@@H](CC(C)C)C(=O)NCC(N)=O)NC(=O)[C@H](CC(N)=O)NC(=O)[C@@H](CCC(N)=O)NC1=O", "values": [
      {"measurement": "pA2", "setting": "[3]", "value": "Inhibition"}
    ]},
    {"smiles": "CC[C@H](C)[C@@H]1NC(=O)[C@@H](Cc2ccc(OC)cc2)NC(=O)[C@H](N)CSSC[C@@H](C(=O)N2CCC[C@@H]2C(=O)N[C@@H](CC(C)C)C(=O)NCC(N)=O)NC(=O)[C@H](CC(N)=O)NC(=O)[C@@H](CCC(N)=O)NC1=O", "values": [
      {"measurement": "pA2", "setting": "[8]", "value": "Mixed"},
      {"measurement": "pA2", "setting": "[9]", "value": "Weak"}
    ]},
    {"smiles": "CC[C@H](C)[C@@H]1NC(=O)[C@H](Cc2ccc(OC)cc2)NC(=O)[C@@H](NC(N)=O)CSSC[C@@H](C(=O)N2CCC[C@H]2C(=O)N[C@@H](CC(C)C)C(=O)NCC(N)=O)NC(=O)[C@H](CC(N)=O)NC(=O)[C@H](CCC(N)=O)NC1=O", "values": [
      {"measurement": "Kb", "setting": "[1]", "value": 60.3, "unit": "nM"}
    ]},
    {"smiles": "NC(=O)CC[C@@H]1NC(=O)[C@H](Cc2ccccc2)NC(=O)[C@H](Cc2ccc(O)cc2)NC(=O)[C@@H](N)CSSC[C@@H](C(=O)N2CCC[C@H]2C(=O)N[C@@H](CCCN=C(N)N)C(=O)NCC(N)=O)NC(=O)[C@H](CC(N)=O)NC1=O", "note": "(stereo in doubt; form 2) [VASOPRESSIN]", "values": [
      {"measurement": "Antidiuretic", "setting": "[5]", "value": 212, "unit": "U/mg"}
    ]},
    {"smiles": "NC(=O)CC[C@@H]1NC(=O)[C@H](Cc2ccccc2)NC(=O)[C@H](Cc2ccc(O)cc2)NC(=O)[C@@H](N)CSSC[C@@H](C(=O)N2CCC[C@H]2C(=O)N[C@@H](CCCN=C(N)N)C(=O)NCC(N)=O)NC(=O)[C@H](CC(N)=O)NC1=O", "note": "(stereo in doubt; form 1) [VASOPRESSIN]", "values": [
      {"measurement": "Antidiuretic", "setting": "[5]", "value": 323, "unit": "U/mg"}
    ]}
  ]
}
